The target of this experiment is T1, GPR158 (Homo sapiens, UniProt Q5T848).
T1 sequence (Q5T848 24-1215): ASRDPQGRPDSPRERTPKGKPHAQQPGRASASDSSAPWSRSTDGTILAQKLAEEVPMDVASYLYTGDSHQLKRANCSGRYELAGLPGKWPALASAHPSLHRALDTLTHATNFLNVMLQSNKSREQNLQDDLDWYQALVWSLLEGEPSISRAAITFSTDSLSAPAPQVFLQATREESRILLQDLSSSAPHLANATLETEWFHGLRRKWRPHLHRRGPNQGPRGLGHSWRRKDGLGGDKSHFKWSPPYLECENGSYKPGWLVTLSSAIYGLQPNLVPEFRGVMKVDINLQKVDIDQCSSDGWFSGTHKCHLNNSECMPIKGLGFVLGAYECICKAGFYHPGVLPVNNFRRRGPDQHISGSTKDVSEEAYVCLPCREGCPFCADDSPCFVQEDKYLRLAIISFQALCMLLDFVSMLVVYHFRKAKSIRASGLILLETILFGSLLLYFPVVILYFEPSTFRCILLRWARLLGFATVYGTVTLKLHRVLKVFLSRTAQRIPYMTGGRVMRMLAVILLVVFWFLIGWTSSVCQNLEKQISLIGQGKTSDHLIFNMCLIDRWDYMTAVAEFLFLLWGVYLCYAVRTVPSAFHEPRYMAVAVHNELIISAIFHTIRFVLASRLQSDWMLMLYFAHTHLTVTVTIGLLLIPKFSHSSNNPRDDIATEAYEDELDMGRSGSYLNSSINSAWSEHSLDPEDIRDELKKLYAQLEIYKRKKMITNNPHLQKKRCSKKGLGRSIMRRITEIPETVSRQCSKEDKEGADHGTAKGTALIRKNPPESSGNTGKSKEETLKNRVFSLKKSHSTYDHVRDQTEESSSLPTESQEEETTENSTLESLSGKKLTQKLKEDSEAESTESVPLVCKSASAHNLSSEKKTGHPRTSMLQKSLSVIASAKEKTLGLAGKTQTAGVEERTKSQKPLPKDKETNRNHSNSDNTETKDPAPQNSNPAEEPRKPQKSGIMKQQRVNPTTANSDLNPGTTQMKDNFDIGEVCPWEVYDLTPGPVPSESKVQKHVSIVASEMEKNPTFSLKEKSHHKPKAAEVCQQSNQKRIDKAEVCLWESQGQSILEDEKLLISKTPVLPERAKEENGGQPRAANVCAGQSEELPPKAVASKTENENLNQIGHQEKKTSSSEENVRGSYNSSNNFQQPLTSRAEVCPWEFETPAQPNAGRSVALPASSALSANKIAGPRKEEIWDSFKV
The experiment can be described thus: Whole cell radioligand binding assay. More on the design: expressed in transfected cells; host or cells: HEK293 (HEK293FT in the BRET methods). Particulars: HEK293 cells, across concentrations. How it is done: FIG. 7. Direct binding of glycine in whole cell radiolabeled assay a) Schematics of the radioligand binding assay. b) Quantification of ^3H-glycine binding to cells. Count Per minute (CPM) are measured and plotted. Data shown mean of 3 independent experiments error bars are s.e.m. values, n=3, *p=0.0403, ***p<0.001, ****p<0.0001 (two-way ANOVA) Columns with no fill (Control cells), columns with angled-line fill (GPR158 cells).
Next, the inventors performed radioligand binding assays examining binding of [^3H]-labeled glycine to HEK293 cells expressing GPR158 (FIG. 7A). […] The inventors have then isolated cellular membranes and conducted classical radioligand titration experiments (FIG. 9D). The inventors detected saturable [^3H]-glycine binding to membranes containing GPR158 is substantial excess over linear non-specific binding to membranes devoid of GPR158 (FIG. 9E). Scatchard analysis (FIG. 9F) estimated Kd of GPR158 for glycine to be ~3 μM. The inventors further performed binding competition experiments directly comparing the ability of glycine and taurine to displace [^3H]-labeled glycine bound to GPR158 (FIG. 8).
Whole cell binding was performed using cDNA of GPR158-venus or each GPR158-venus mutant or empty pcDNA3.1+ for ctrl cells. […] Finally radioactivity was measured using the liquid scintillation analyzer Tri-Carb 4910 TR.

Turning to `NCC(=O)O` [^3H-glycine, [^3H]-glycine], the “binding to GPR158-expressing cells” value is reported as “significant binding”.

Source of the values: patent US20260376293A1, “METHODS FOR STUDYING GPR158 PHARMACOLOGY AND IDENTIFICATION OF ITS LIGANDS” (UNIVERSITY OF FLORIDA RESEARCH FOUNDATION, INCORPORATED, priority 2022, published 2026).
